What was measured:
Cavia porcellus [1] = organism: Cavia porcellus; assay: Compound was evaluated for the increase in duration or cardiac APD (action potential duration) at 90% repolarization, using isolated guinea pig ventricular myocytes at concentration of 1000 nM; type: functional, Heart, Ventricular myocyte; parameters: unit not given here
Cavia porcellus [2] = organism: Cavia porcellus; assay: Compound was evaluated for the increase in duration or cardiac APD (action potential duration) at 90% repolarization, using isolated guinea pig ventricular myocytes at concentration of 100 nM; type: functional, Heart, Ventricular myocyte; parameters: unit not given here
Cavia porcellus [3] = organism: Cavia porcellus; assay: Compound was evaluated for the increase in duration or cardiac APD (action potential duration) at 90% repolarization, using isolated guinea pig ventricular myocytes at concentration of 33000 nM; no detectable change; type: functional; conditions: Heart, Ventricular myocyte
Cavia porcellus [4] = organism: Cavia porcellus; assay: Compound was evaluated for the increase in duration or cardiac APD (action potential duration) at 90% repolarization, using isolated guinea pig ventricular myocytes at concentration of 10000 nM; no detectable change; type: functional; conditions: Heart, Ventricular myocyte
Cavia porcellus [5] = organism: Cavia porcellus; assay: Compound was evaluated for the increase in duration or cardiac APD (action potential duration) at 90% repolarization, using isolated guinea pig ventricular myocytes at concentration of 33000 nM; type: functional, Heart, Ventricular myocyte
Cavia porcellus [6] = organism: Cavia porcellus; assay: Compound was evaluated for the increase in duration or cardiac APD (action potential duration) at 90% repolarization, using isolated guinea pig ventricular myocytes at concentration of 10000 nM; type: functional, Heart, Ventricular myocyte; parameters: unit not given here
Cavia porcellus [7] = organism: Cavia porcellus; assay: Compound was evaluated for the increase in duration or cardiac APD (action potential duration) at 90% repolarization, using isolated guinea pig ventricular myocytes at concentration of 50000 nM; no detectable change; type: functional; conditions: Heart, Ventricular myocyte
Cavia porcellus [8] = organism: Cavia porcellus; assay: Compound was evaluated for the increase in duration or cardiac APD (action potential duration) at 90% repolarization, using isolated guinea pig ventricular myocytes at concentration of 75000 nM; type: functional, Heart, Ventricular myocyte
Cavia porcellus [9] = organism: Cavia porcellus; assay: Compound was evaluated for the increase in duration or cardiac APD (action potential duration) at 90% repolarization, using isolated guinea pig ventricular myocytes at concentration of 50000 nM; type: functional, Heart, Ventricular myocyte
Cavia porcellus [10] = organism: Cavia porcellus; assay: Compound was evaluated for the increase in duration or cardiac APD (action potential duration) at 90% repolarization, using isolated guinea pig ventricular myocytes at concentration of 50 nM; type: functional, Heart, Ventricular myocyte
Cavia porcellus [11] = organism: Cavia porcellus; assay: Compound was evaluated for the increase in duration or cardiac APD (action potential duration) at 90% repolarization, using isolated guinea pig ventricular myocytes at concentration of 250 nM; type: functional, Heart, Ventricular myocyte
Cavia porcellus [12] = organism: Cavia porcellus; assay: Compound was evaluated for the increase in duration or cardiac APD (action potential duration) at 90% repolarization, using isolated guinea pig ventricular myocytes at concentration of 1 nM; type: functional, Heart, Ventricular myocyte
Cavia porcellus [13] = organism: Cavia porcellus; assay: Compound was evaluated for the increase in duration or cardiac APD (action potential duration) at 90% repolarization, using isolated guinea pig ventricular myocytes at concentration of 10 nM; type: functional, Heart, Ventricular myocyte
Cavia porcellus [14] = organism: Cavia porcellus; assay: Compound was evaluated for the increase in duration or cardiac APD (action potential duration) at 90% repolarization, using isolated guinea pig ventricular myocytes at concentration of 33000 nM; No detectable change; type: functional; conditions: Heart, Ventricular myocyte
Cavia porcellus [15] = organism: Cavia porcellus; assay: Compound was evaluated for the increase in duration or cardiac APD (action potential duration) at 90% repolarization, using isolated guinea pig ventricular myocytes at concentration of 10000 nM; No detectable change; type: functional; conditions: Heart, Ventricular myocyte

For `CS(=O)(=O)Nc1cccc(OCC(O)CN2CCC(c3ccccc3)CC2)c1` (stereo unspecified), the “Delta APD90” value (Cavia porcellus [1]) was 48.
With `COc1ccc(CCN(C)CC(O)COc2ccc(NS(C)(=O)=O)cc2)cc1OC` (stereo unspecified) the “Delta APD90” value (Cavia porcellus [2]) was 40 and the “Delta APD90” value (Cavia porcellus [1]) was 100.
For `CS(=O)(=O)Nc1ccc(OCC(O)CN2CCc3ccccc3C2)cc1` (stereo unspecified), the “Delta APD90” value (Cavia porcellus [2]) was 60.
For `CN(c1ccc(OCC(O)CNCCc2ccccc2)cc1)S(C)(=O)=O` (stereo unspecified), the “Delta APD90” value (Cavia porcellus [3]) was “No detectable change” and the “Delta APD90” value (Cavia porcellus [4]) was “No detectable change”.
`CC(C)NCC(O)COc1ccc(NS(C)(=O)=O)cc1` (stereo unspecified) was tested, and the “Delta APD90” value (Cavia porcellus [4]) was “No detectable change” and the “Delta APD90” value (Cavia porcellus [5]) was 33.
`CS(=O)(=O)Nc1ccc(OCC(O)CNCCc2ccc(Cl)cc2)cc1` (stereo unspecified) was tested, and the “Delta APD90” value (Cavia porcellus [6]) was 90.
`CCN(CC)CC(O)COc1ccc(NS(C)(=O)=O)cc1` (stereo unspecified) was tested, and the “Delta APD90” value (Cavia porcellus [6]) was 85 and the “Delta APD90” value (Cavia porcellus [1]) was 25.
For `CNCC(O)COc1ccc(NS(C)(=O)=O)cc1` (stereo unspecified), the “Delta APD90” value (Cavia porcellus [4]) was “No detectable change” and the “Delta APD90” value (Cavia porcellus [7]) was “No detectable change”.
In the case of `CS(=O)(=O)Nc1ccc(OCC(O)CN2CCN(c3ccccc3)CC2)cc1` (stereo unspecified), the “Delta APD90” value (Cavia porcellus [6]) is reported as 100 and the “Delta APD90” value (Cavia porcellus [1]) is reported as 78.
For `CS(=O)(=O)Nc1ccc(OCC(O)CN2CCC(c3ccccc3)CC2)cc1` (stereo unspecified), the “Delta APD90” value (Cavia porcellus [2]) was 48 and the “Delta APD90” value (Cavia porcellus [1]) was 100.
For `COc1ccc(CCNCC(O)COc2ccc(NS(C)(=O)=O)cc2)cc1OC` (stereo unspecified), the “Delta APD90” value (Cavia porcellus [6]) was 80 and the “Delta APD90” value (Cavia porcellus [1]) was 15.
For `CC(C)(C)NCC(O)COc1ccc(NS(C)(=O)=O)cc1` (stereo unspecified), the “Delta APD90” value (Cavia porcellus [5]) was 40, the “Delta APD90” value (Cavia porcellus [8]) was 75 and the “Delta APD90” value (Cavia porcellus [9]) was 75.
`CN(CCOc1ccc(NS(C)(=O)=O)cc1)CCc1ccc(NS(C)(=O)=O)cc1` [DOFETILIDE] was tested, and the “Delta APD90” value (Cavia porcellus [10]) was 23, the “Delta APD90” value (Cavia porcellus [2]) was 63 and the “Delta APD90” value (Cavia porcellus [11]) was 100.
For `CS(=O)(=O)Nc1ccc(OCC(O)CN2CCC(c3ccc(C(F)(F)F)cc3)CC2)cc1` (stereo unspecified), the “Delta APD90” value (Cavia porcellus [10]) was 100, the “Delta APD90” value (Cavia porcellus [12]) was 40 and the “Delta APD90” value (Cavia porcellus [13]) was 100.
In the case of `CN(C/C=C/c1ccccc1)CC(O)COc1ccc(NS(C)(=O)=O)cc1` (stereo unspecified), the “Delta APD90” value (Cavia porcellus [10]) is reported as 50 and the “Delta APD90” value (Cavia porcellus [2]) is reported as 100.
`O=C(O)c1ccc(OCC(O)CN2CCC(c3ccccc3)CC2)cc1` (stereo unspecified) was tested, and the “Delta APD90” value (Cavia porcellus [1]) was 36.
For `CN(CCc1ccc(Cl)c(Cl)c1)CC(O)COc1ccc(NS(C)(=O)=O)cc1` (stereo unspecified), the “Delta APD90” value (Cavia porcellus [2]) was 85, the “Delta APD90” value (Cavia porcellus [12]) was 20 and the “Delta APD90” value (Cavia porcellus [13]) was 42.
In the case of `CC(C)NCC(O)COc1ccc(N(C)S(C)(=O)=O)cc1` (stereo unspecified), the “Delta APD90” value (Cavia porcellus [14]) is reported as “No detectable change” and the “Delta APD90” value (Cavia porcellus [15]) is reported as “No detectable change”.
For `COc1ccc(CCN(CC(O)COc2ccc(NS(C)(=O)=O)cc2)C(C)C)cc1OC` (stereo unspecified), the “Delta APD90” value (Cavia porcellus [2]) was 65 and the “Delta APD90” value (Cavia porcellus [1]) was 100.
In the case of `CC(C)NCC(O)c1ccc(NS(C)(=O)=O)cc1` (stereo unspecified) [SOTALOL], the “Delta APD90” value (Cavia porcellus [6]) is reported as 75 and the “Delta APD90” value (Cavia porcellus [9]) is reported as 30.
`CS(=O)(=O)Nc1ccc(OCC(O)CNCCc2ccccc2)cc1` (stereo unspecified) was tested, and the “Delta APD90” value (Cavia porcellus [6]) was 80.
In the case of `CS(=O)(=O)Nc1ccc(OCC(O)CN2CCC(c3ccc(Cl)cc3)CC2)cc1` (stereo unspecified), the “Delta APD90” value (Cavia porcellus [12]) is reported as 50 and the “Delta APD90” value (Cavia porcellus [13]) is reported as 100.
With `CN(CCc1ccccc1)CC(O)COc1ccc(NS(C)(=O)=O)cc1` (stereo unspecified) the “Delta APD90” value (Cavia porcellus [2]) was 48 and the “Delta APD90” value (Cavia porcellus [1]) was 88.
In the case of `CN(CCCc1ccccc1)CC(O)COc1ccc(NS(C)(=O)=O)cc1` (stereo unspecified), the “Delta APD90” value (Cavia porcellus [2]) is reported as 70.

Source: ChEMBL document CHEMBL1125688, “The synthesis and potassium channel blocking activity of some (4-methanesulfonamidophenoxy)propanolamines as potential class III antiarrhythmic agents” (1991)
